According to EP2439195B1, “NAPHTHALENE CARBOXAMIDE DERIVATIVES AS INHIBITORS OF PROTEIN KINASE AND HISTONE DEACETYLASE, PREPARATION METHODS AND USES THEREOF” (Shenzhen Chipscreen Biosciences, Ltd., priority 2009, dated 2010):

Experiments:
Assay type in all cases: in vivo
[1] = system: human A549 lung cancer; experiment: Nude mice tumor transplanted from human A549 lung cancer (Example 51); conditions: 40 mg/kg orally once a day for 24 days
Experimental: Then the cultured A549 human lung cancer cells were implanted into the armpit of 50 mice. […] Each group had 8 mice. One group was treated with vehicle. One group was treated with Sutent, the positive control drug. […] Each group was dosed orally once a day for 24 days. Tumor volumes along with body weights were recorded twice per week. On the next day after 24 doses, the mice were killed, and tumors were weighed. The tumor growth inhibition of each group was calculated using the following formula: {[(the average tumor weight of control group)-(the average tumor weight of test group)]/(the average tumor weight of control group)}×100%.

[2] = system: SSMC7721 human liver cancer cells; experiment: Nude mice tumor transplanted from human SSMC7721 liver cancer (Example 53); conditions: 40 mg/kg orally once a day for 24 days
Experimental: Female nu/nu mice of 18∼20g were fed by normal diet for 3 days. Then the cultured SSMC7721 human liver cancer cells were implanted into the armpit of 50 mice. […] One group was treated with vehicle. One group was treated with Sutent, the positive control drug. […] Each group was dosed orally once a day for 24 days. […] The tumor growth inhibition of each group was calculated using the following formula: {[([…])} × 100%. [formula] The experimental results are shown in Table 7 and Figure 3.

[3] = system: human SSMC7721 liver cancer; experiment: Nude mice tumor transplanted from human SSMC7721 liver cancer (Example 56); conditions: 40 mg/kg orally once a day for 30 days
Experimental: (§1) Female nu/nu mice of 18∼20g were fed by normal diet for 3 days. Then the cultured SSMC7721 human liver cancer cells were implanted into the armpit of 50 mice. […] Each group had 8 mice. One group was treated with vehicle. One group was treated with Sutent, the positive control drug. Two groups were treated with compound 33 at different concentrations. The other two groups were treated with compound 37 at different concentrations. Each group was dosed orally once a day for 30 days. […] The tumor growth inhibition of each group was calculated using the following formula: {[(the average tumor weight of control group)-(the average tumor weight of test group)]/(the average tumor weight of control group)} × 100%. [formula] The experimental results are shown in Table 10 and Figure 6. Table10

[4] = system: human HCT-8 colon cancer; experiment: Nude mice tumor transplanted from human HCT-8 colon cancer (Example 52); conditions: 40 mg/kg orally once a day
Experimental: Female nu/nu mice of 18∼20g were fed by normal diet for 3 days. Then the cultured HCT-8 human colon cancer cells were implanted into the armpit of 50 mice. […] Each group had 8 mice. One group was treated with vehicle. One group was treated with Sutent, the positive control drug. […] Each group was dosed orally once a day for 24 days. Tumor volumes along with body weights were recorded twice per week. On the next day after 20 doses, the mice were killed, and tumors were weighed. The tumor growth inhibition of each group was calculated using the following formula: {[([…])} × 100%. [formula] The experimental results are shown in Table 6 and Figure 2.

[5] = system: human HCT-8 colon cancer; experiment: Nude mice tumor transplanted from human HCT-8 colon cancer (Example 54); conditions: 40 mg/kg orally once a day for 20 days
Experimental: as §1, with “cultured HCT-8” for “cultured SSMC7721”, “human colon” for “human liver”, “compound 34” for “compound 37”, “for 20” for “for 30”, “Table 8” for “Table 10”, “Figure 4.” for “Figure 6. Table10”

SMILES: CCN(CC)CCNC(=O)c1c(C)[nH]c(/C=C2\C(=O)Nc3ccc(F)cc32)c1C [Sutent, sunitinib, reference compound]
- Tumor weight [1]: 2.06 ± 0.71 g
- Body weight (g) end ([1]; end): 24.4 ± 2.3 g
- Body weight (g) start ([1]; start): 20.3 ± 1.4 g
- TGI (%) ([1]; tumor growth inhibition): 50.9%
- Tumor weight [2]: 1.00 ± 0.68 g
- Body weight (g) end ([2]; end): 24.8 ± 1.2 g
- Body weight (g) start ([2]; start): 21.0 ± 0.8 g
- TGI (%) ([2]; tumor growth inhibition): 70.3%
- Tumor weight [3]: 0.88 ± 0.39 g
- Body weight (g) end ([3]; end): 24.0 ± 0.6 g
- Body weight (g) start ([3]; start): 21.2 ± 1.1 g
- TGI (%) ([3]; tumor growth inhibition): 61.1%
- Body weight (g) end ([4]; end): 22.4 ± 1.1 g
- Tumor weight ([4]; killed after 20 doses): 0.23 ± 0.07 g
- Body weight (g) start ([4]; start): 21.5 ± 0.7 g
- TGI (%) ([4]; tumor growth inhibition): 95.3%
- Tumor weight [5]: 0.44 ± 0.15 g
- Body weight (g) end ([5]; end): 22.1 ± 1.5 g
- Body weight (g) start ([5]; start): 20.6 ± 1.2 g
- TGI (%) ([5]; tumor growth inhibition): 89.1%
